For this assay, the system named is locally advanced or metastatic KRAS G12C mutant NSCLC. In words: CodeBreaK 100 phase 2 portion, sotorasib monotherapy 960 mg QD (NCT03600883). In kind it is in vivo, human. The note with it: among 46 confirmed responders; cutoff Sep. 1, 2020.

Experimental: As discussed above, in phase 2 of the CodeBreaK 100 Trial (ClinicalTrials.gov identifier: NCT03600883) subjects with locally advanced or metastatic KRAS G12C mutant NSCLC were treated with the compound of Formula I as monotherapy at 960 mg QD.
• Subject has provided informed consent prior to initiation of any study specific activities/procedures. • Men or women: 18 years of age or older. • Pathologically documented, locally-advanced or metastatic malignancy with KRAS G1 2C 10 mutation identified through molecular testing. For phase 2. the mutation was confirmed by central testing prior to enrollment. • Subjects must have progressed after receiving anti-PD-1 or anti-PD-L1 immunotherapy (unless contraindicated) AND/OR platinum-based combination chemotherapy AND targeted therapy if actionable oncogenic driver mutations were identified (i.e., EGFR, ALK, and ROS1). Subjects must have received no more than 3 prior lines of therapy. The following guidance was used: • Adjuvant therapy was counted as a line of therapy if the subject progressed on or within 6 months of adjuvant therapy administration. • In locally advanced and unresectable NSCLC, disease progression on or within six months of end of prior curatively intended multimodal therapy was counted as a line of therapy.
• Active brain metastases from non-brain tumors.
Samples for biomarker analysis, e.g., to evaluate potential biomarkers that may correlate with treatment response, were collected.
For subjects with NSCLC an archival tumor sample (formalin fixed, paraffin embedded (FFPE) sample, collected within 5 years of enrollment) or pretreatment tumor biopsy (core needle or fine needle aspirates or excisional FFPE sample) was submitted prior to enrollment for central laboratory testing as well as subsequent exploratory biomarker analyses. […]
KRAS G12C mutation testing was conducted using a therascreen® KRAS RGQ PCR Kit (Qiagen). […] The mutations detected are: G12A, G12D, G12R, G12C, G12S, G12V, and G13D.
PD-L1 testing was conducted at the central labs using the Dako PharmDx 22C3 immunohistochemistry FDA-approved kit according to the instructions for use. […] All slides were reviewed and scored by a board-certified pathologist trained to score the PD-L1 IHC 22C3 pharrnDx assay.
STK11, KEAP1 , and TP53 mutation testing was conducted using the Resolution Bioscience Resolution ctDx Lung™ assay that included 24 genes (including those actionable in NSCLC). […] STK11/KEAP1/TP53 co-mutation analysis determined mutational status from baseline tissue and/or plasma samples, and mutations include nonsense, missense, frameshift, or splice site mutations and insertion/deletions predicted to be loss-of-function, and excluded variants of unknown significance. […]

On to `C=CC(=O)N1CCN(c2nc(=O)n(-c3c(C)ccnc3C(C)C)c3nc(-c4c(O)cccc4F)c(F)cc23)[C@@H](C)C1` [sotorasib, 6-fluoro-7-(2-fluoro-6-hydroxyphenyl)-(1M)-1-[4-methyl-2-(propan-2-yl)pyridin-3--yl]-4-[(2S)-2-methyl-4-(prop-2-enoyl)piperazin-1-yl]pyrido[2,3-d]pyrimidin-2(1H)-one], for which the “Duration of response (KM) - 25th percentile” value is recorded as 6.8 months, the “Duration of response (KM) - 75th percentile” value worked out at 8.4 months, the “Duration of response (KM) - Max (+ for censored)” value turned out to be 8.4 months and the “Duration of response (KM) - Median” value is given as 8.4 months.

Source of the values: patent US20240091230A1, “USE OF KRAS G12C INHIBITOR IN TREATING CANCERS” (AMGEN INC., priority 2021, published 2024).
